Consider one molecule from ChEMBL document CHEMBL3763120, “Phenyl Benzenesulfonylhydrazides Exhibit Selective Indoleamine 2,3-Dioxygenase Inhibition with Potent in Vivo Pharmacodynamic Activity and Antitumor Efficacy” (J Med Chem, 2016).

What is called inhibition is the drop in the measured response relative to a control, in per cent. Lower therefore signals a response near the control.

This test has as its target Gamma-aminobutyric acid type B receptor subunit 1 (Homo sapiens) (UniProt Q9UBS5). Put plainly: Inhibition of GABAB1A receptor (unknown origin) at 10 uM.

Gamma-aminobutyric acid type B receptor subunit 1 (Homo sapiens), sequence (Q9UBS5 whole entry): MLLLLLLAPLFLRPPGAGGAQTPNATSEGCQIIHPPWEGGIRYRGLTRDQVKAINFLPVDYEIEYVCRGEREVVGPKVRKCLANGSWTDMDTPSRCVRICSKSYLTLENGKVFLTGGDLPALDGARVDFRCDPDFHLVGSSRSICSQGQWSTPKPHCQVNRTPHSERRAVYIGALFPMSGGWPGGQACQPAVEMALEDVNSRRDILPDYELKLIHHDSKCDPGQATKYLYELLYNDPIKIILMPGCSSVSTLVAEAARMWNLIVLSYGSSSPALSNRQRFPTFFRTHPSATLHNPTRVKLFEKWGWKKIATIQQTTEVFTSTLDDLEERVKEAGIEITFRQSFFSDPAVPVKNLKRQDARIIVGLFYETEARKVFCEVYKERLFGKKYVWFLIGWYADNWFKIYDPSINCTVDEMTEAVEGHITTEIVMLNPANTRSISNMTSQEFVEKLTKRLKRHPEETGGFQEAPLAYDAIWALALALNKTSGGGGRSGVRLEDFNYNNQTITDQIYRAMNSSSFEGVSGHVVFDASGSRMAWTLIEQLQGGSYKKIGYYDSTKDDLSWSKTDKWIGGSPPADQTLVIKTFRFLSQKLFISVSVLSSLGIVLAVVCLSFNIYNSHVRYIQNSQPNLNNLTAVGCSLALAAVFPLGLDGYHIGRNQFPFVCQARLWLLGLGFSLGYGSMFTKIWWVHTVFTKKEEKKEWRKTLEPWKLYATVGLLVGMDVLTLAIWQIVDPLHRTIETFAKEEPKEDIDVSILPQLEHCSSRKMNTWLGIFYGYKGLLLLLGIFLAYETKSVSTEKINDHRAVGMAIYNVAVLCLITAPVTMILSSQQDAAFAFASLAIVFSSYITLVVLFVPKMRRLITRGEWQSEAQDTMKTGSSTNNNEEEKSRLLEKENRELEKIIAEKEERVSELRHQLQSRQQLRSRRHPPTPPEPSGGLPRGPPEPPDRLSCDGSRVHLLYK

For `O=C1Cc2cc(S(=O)(=O)NNc3ccc(Br)cc3)ccc2N1`, the inhibition was < 50%.
